Experiment [1] has as its target CDK12/CyclinK (Homo sapiens (Human), UniProt Q9NYV4). Nature of the experiment: CDK12/CycK high ATP kinase assay (TR-FRET). The format is biochemical. The following applies: for IC50: 2 mM ATP (high ATP), median, read-out: CDK12/CyclinK, 2 mM ATP (high ATP), IC50 - [mol/l] (median); for (IC50 CDK12 high ATP) to (Degradation DC50 CDK12) ratio: IC50 CDK12 at 2 mM ATP divided by CDK12 degradation DC50 (IF, CAL-120). How it is done: In the context of the present invention, the term “IC50 CDK12 hATP” refers to the IC50 values obtained according to the assay described in this section (2.2) herein below, i.e. the IC50 values for the inhibition of CDK12 at high (2 mM) ATP.
CDK12/CycK-inhibitory activity of compounds of the present invention at 2 millimol/L adenosine-tri-phosphate (ATP) was quantified employing the TR-FRET (TR-FRET=Time Resolved Fluorescence Energy Transfer) based CDK12/CycK activity inhibition assay as described in the following paragraphs.
A complex of human recombinant CDK12 and human recombinant CycK (both N-terminally His-tagged, expression and purification as described above) was used as enzyme. As substrate for the kinase reaction biotinylated peptide biotin-Ahx-KFELLPTPPLSPSRRSGL (C-terminus in amid form) was used which can be purchased e.g. form the company Biosyntan (Berlin-Buch, Germany).
For the assay 50 nanoL of a 100 fold concentrated solution of the test compound in DMSO was pipetted into either a black low volume 384 well microtiter plate or a black 1536 well microtiter plate (both Greiner Bio-One, Frickenhausen, Germany), 2 microL of a solution of CDK12/CycK in aqueous assay buffer [25 millimol/L HEPES pH 7.5, 20 millimol/L MgCl2, 5 millimol/L β-glycerophosphate, 2 millimol/L EGTA, 1.0 millimol/L dithiothreitol, 0.01% (v/v) Nonidet-P40 (Sigma), 0.01% (w/v) bovine serum albumin] were added and the mixture was incubated for 15 min at 22° C. to allow pre-binding of the test compounds to the enzyme before the start of the kinase reaction. Then the kinase reaction was started by the addition of 3 microL of a solution ATP (3.33 millimol/L=>final conc. in the 5 microL assay volume is 2 millimol/L) and substrate (1.67 micromol/L=>final conc. in the 5 microL assay volume is 1 micromol/L) in assay buffer and the resulting mixture was incubated for a reaction time of 60 min at 22° C. The concentration of CDK12/CycK was adjusted depending of the activity of the enzyme lot and was chosen appropriate to have the assay in the linear range, typical concentrations were about 0.75 nanomol/L. The reaction was stopped by the addition of 3 microL of a solution of TR-FRET detection reagents (125 nanomol/L streptavidine-XL665 [Cisbio Bioassays, Codolet, France] and 0.67 nanomol/L anti-Phospho-c-Myc (Ser 62) (E1J4K)-antibody from Cell Signalling [#13748] and 2 nanomol/L LANCE EU-W1024 labeled anti-rabbit IgG antibody [Perkin-Elmer, product no. 0083]) in an aqueous EDTA-solution (133 millimol/L EDTA, 0.27% (w/v) bovine serum albumin in 66.7 millimol/L HEPES pH 7.5).
The resulting mixture was incubated 1 h at 22° C. to allow the formation of complex between the phosphorylated biotinylated peptide and the detection reagents. Subsequently the amount of phosphorylated substrate was evaluated by measurement of the resonance energy transfer from the Eu-chelate to the streptavidine-XL. Therefore, the fluorescence emissions at 620 nm and 665 nm after excitation at 350 nm was measured in a TR-FRET reader, e.g. a Pherastar FS (BMG Labtechnologies, Offenburg, Germany) or a Viewlux (Perkin-Elmer). The ratio of the emissions at 665 nm and at […] was taken as the measure for the amount of phosphorylated substrate. The data were normalised (enzyme reaction without inhibitor=0% inhibition, all other assay components but no enzyme=100% inhibition).

For experiment [2], the system named is MDA-MB-231, human breast cancer cells. Nature of the experiment: Proliferation assay MDA-MB-231 (crystal violet). The format is cell-based. The conditions noted are these: 96 h, MDA-MB-231 parental cells, 4 days, median, read-out: Prolif-MDA MB-231, IC50 - [mol/l] (median). How it is done: Human tumour cells were originally obtained from the American Type Culture Collection (ATCC), or from the Deutsche Sammlung von Mikroorganismen und Zellkulturen (DSMZ, German Collection of Microorganisms and Cell Cultures). Cultivated tumour cells (CAL-120, human breast adenocarcinoma cells, DSMZ ACC-459; MDA-MB-231, human breast cancer cells, ATCC HTB-26) were plated at a density of 4,000 cells/well in a 96-well multitier plate in 200 microL of their respective growth medium supplemented 10% fetal calf serum. After 24 hours, the cells of one plate (zero-point plate) were stained with crystal violet (see below), while the medium of the other plates was supplemented with the test substances in various concentrations (0 micromol/L, as well as in the range of 0.01-10 micromol/L; the final concentration of the solvent dimethyl sulfoxide was adjusted to 0.1%) using a Tecan HP D300 Digital Dispenser. The cells were incubated for 4 days in the presence of test substances. Cell proliferation was determined by staining the cells with crystal violet: the cells were fixed by adding 20 microL/measuring point of an 11% glutaric aldehyde solution for 15 minutes at room temperature. After three washing cycles of the fixed cells with water, the plates were dried at room temperature. The cells were stained by adding 100 microL/measuring point of a 0.1% crystal violet solution (pH 3.0). After three washing cycles of the stained cells with water, the plates were dried at room temperature. The dye was dissolved by adding 100 microL/measuring point of a 10% acetic acid solution. The extinction was determined by photometry at a wavelength of 595 nm. The change of cell number, in percent, was calculated by normalization of the measured values to the extinction values of the zero-point plate (=0%) and the extinction of the untreated (0 μM) cells (=100%). The IC50 values (inhibitory concentration at 50% of maximal effect) were determined by means of a 4 parameter fit.

Bounds are passed on as bounds.

Chain of CDK12/CyclinK (Q9NYV4 other isoform, or with tags, fused parts or gaps): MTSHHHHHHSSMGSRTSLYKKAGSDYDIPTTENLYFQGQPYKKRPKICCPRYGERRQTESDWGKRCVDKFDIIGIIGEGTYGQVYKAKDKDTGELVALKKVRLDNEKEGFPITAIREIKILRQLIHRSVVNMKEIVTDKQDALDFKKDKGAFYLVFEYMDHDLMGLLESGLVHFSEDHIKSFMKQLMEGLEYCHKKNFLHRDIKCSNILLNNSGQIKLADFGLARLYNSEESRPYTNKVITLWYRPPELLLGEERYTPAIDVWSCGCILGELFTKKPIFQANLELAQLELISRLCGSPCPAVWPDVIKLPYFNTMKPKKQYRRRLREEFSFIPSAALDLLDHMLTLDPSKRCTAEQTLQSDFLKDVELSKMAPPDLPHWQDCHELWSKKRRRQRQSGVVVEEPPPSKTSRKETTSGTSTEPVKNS
Chain of CDK12/CyclinK (O75909 other isoform, or with tags, fused parts or gaps partner): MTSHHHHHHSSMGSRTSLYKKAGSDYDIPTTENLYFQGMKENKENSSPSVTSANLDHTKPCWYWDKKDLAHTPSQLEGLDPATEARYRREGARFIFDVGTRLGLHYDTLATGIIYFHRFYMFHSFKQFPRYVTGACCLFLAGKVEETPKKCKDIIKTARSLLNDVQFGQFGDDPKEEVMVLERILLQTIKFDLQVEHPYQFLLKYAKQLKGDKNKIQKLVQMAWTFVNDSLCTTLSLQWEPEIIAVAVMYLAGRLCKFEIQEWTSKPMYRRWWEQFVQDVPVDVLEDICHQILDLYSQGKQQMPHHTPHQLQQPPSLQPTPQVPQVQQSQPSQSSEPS

As to `FC(F)(F)c1ccc(-c2cnc(CNc3nc(N4CCOCC4)nn4c(C(F)(F)F)cnc34)[nH]2)cn1` [Example 12, 2-(morpholin-4-yl)-7-(trifluoromethyl)-N-({5-[6-(trifluoromethyl)pyridin-3-yl]-1H-imidazol-2-yl}methyl)imidazo[2,1-f][1,2,4]triazin-4-amine], the IC50 in experiment [1] amounted to 3.09 nM; in experiment [2] it was 22.5 nM. In addition, the “(IC50 CDK12 high ATP) to (Degradation DC50 CDK12) ratio” value in experiment [1] is recorded as <3.09E−3.

Take `COc1ccc(-c2nnc(CNc3nc(N4CCOCC4)nc4c(C(F)(F)F)cnn34)[nH]2)cn1` [Example 15, N-{[5-(6-methoxypyridin-3-yl)-4H-1,2,4-triazol-3-yl]methyl}-2-(morpholin-4-yl)-8-(trifluoromethyl)pyrazolo[1,5-a][1,3,5]triazin-4-amine]: the IC50 in experiment [1] worked out at 526 nM; in experiment [2] it was 259 nM. Further, in experiment [1], the “(IC50 CDK12 high ATP) to (Degradation DC50 CDK12) ratio” value is reported as <0.53.

Regarding `FC(F)(F)Oc1ccc(-c2nnc(CNc3nc(N4CCOCC4)nn4c(C(F)(F)F)cnc34)[nH]2)cn1` [Example 19, 2-(morpholin-4-yl)-N-({5-[6-(trifluoromethoxy)pyridin-3-yl]-4H-1,2,4-triazol-3-yl}methyl)-7-(trifluoromethyl)imidazo[2,1-f][1,2,4]triazin-4-amine], the IC50 is 4.14 nM in experiment [1] and 37.5 nM in experiment [2].

Regarding `FC(F)(F)c1ccc(-c2nnc(CNc3nc(N4CCOCC4)nn4c(C(F)(F)F)cnc34)[nH]2)cn1` [Example 20, 2-(morpholin-4-yl)-7-(trifluoromethyl)-N-({5-[6-(trifluoromethyl)pyridin-3-yl]-4H-1,2,4-triazol-3-yl}methyl)imidazo[2,1-f][1,2,4]triazin-4-amine], the IC50 in experiment [1] stood at 11.9 nM; in experiment [2], 52.9 nM. For the same molecule, in experiment [1], the “(IC50 CDK12 high ATP) to (Degradation DC50 CDK12) ratio” value is <0.01.

In the case of `Cc1ccc(-c2nnc(CNc3nc(N4CCOCC4)nc4c(C(F)(F)F)cnn34)[nH]2)cn1` [Example 22, N-{[5-(6-methylpyridin-3-yl)-4H-1,2,4-triazol-3-yl]methyl}-2-(morpholin-4-yl)-8-(trifluoromethyl)pyrazolo[1,5-a][1,3,5]triazin-4-amine], in experiment [1], the IC50 is 489 nM and the “(IC50 CDK12 high ATP) to (Degradation DC50 CDK12) ratio” value was <0.49. In addition, the IC50 in experiment [2] came out at 286 nM.

On to `Cc1ccc(-c2nnc(CNc3nc(N4CCOCC4)nn4c(C(F)(F)F)cnc34)[nH]2)cn1` [Example 23, N-{[5-(6-methylpyridin-3-yl)-4H-1,2,4-triazol-3-yl]methyl}-2-(morpholin-4-yl)-7-(trifluoromethyl)imidazo[2,1-f][1,2,4]triazin-4-amine], for which, in experiment [1], the IC50 turned out to be 160 nM and the “(IC50 CDK12 high ATP) to (Degradation DC50 CDK12) ratio” value was <0.16. Moreover, the IC50 in experiment [2] is 75.8 nM.

Source of the values: US20250066370A1, “BICYCLIC TRIAZINE DERIVATIVES FOR THE TREATMENT OF CANCER” (DEUTSCHES KREBSFORSCHUNGSZENTRUM, priority 2022, published 2025).
